Patent EP4563579A1, “MACROCYCLIC EGFR INHIBITOR, AND PREPARATION METHOD THEREFOR AND PHARMACEUTICAL USE THEREOF” (Abbisko Therapeutics Co., Ltd., priority 2022, dated 2024)

Legend:
[1] = system: Ba/F3 EGFR-L858R-T790M-C797S (LTC); test: Cell proliferation assay (CellTiter-Glo), Ba/F3 LTC; assay type: cell-based; details: Mus musculus, BaF3; Ba/F3 EGFR-L858R-T790M-C797S cells, 72 hour incubation, CTG readout
Protocol: (§1) • DMEM Medium (Gibco, Cat#11965118) • RPMI1640 Medium (Gibco, Cat#11875119) • Fetal Bovine Serum (FBS) (GBICO, Cat#10099-141) • CellTiter-Glo® Luminescent Cell Viability Assay Kit (Promega, Cat#G7572) 96-well, Black, Clear Flat Bottom Plate (Corning®, Cat# 3603)
(§2) • SpectraMax Multimode Microplate Reader MD, 2104-0010A; • CO2 Incubator, Thermo Scientific 3100 Series; • Biosafety Cabinet, Thermo Scientific, 1300 Series A2; • Inverted Microscope, Olympus, CKX41SF; • Siemens Refrigerator, KK25E76TI.
(§3) • 1. Cell Culture and Inoculation: • (1) Harvest cells in a logarithmic growth phase and count the cells using a […]. Test cell viability using a trypan blue exclusion method to ensure that cell viability is above 90%. • (2) Adjust the cell concentration to desired final density; and add 90 µL of cell suspension to a 96-well plate. • (3) Incubate the cells overnight at 37°C, under 5% CO2 and 95% humidity in the 96-well plate. • 2. T0 Reference Data: • (1) Add 10 µL PBS to each well of the T0 plate containing cells. • (2) Thaw the CTG reagent and equilibrate the plate to room temperature for 30 minutes. • (3) Add an equal volume of CTG solution to each well. • (4) Lyse cells by shaking on an orbital shaker for 5 minutes. • (5) Leave the plate at room temperature for 20 minutes to stabilize the luminescence signal. • (6) Read the T0 […]. • 3. Compound Dilution and Addition • (1) Add a corresponding volume of DMSO to a corresponding compound powder according to the compound information sheet to prepare a 10 mM stock solution. • (2) Prepare 1000-fold and 3.16-fold diluted compound solutions. • (3) Dilute the 1000× diluted compound solution 100-fold with PBS to prepare a 10-fold compound solution, with a maximum concentration of 10 µM, nine concentrations and 3.16-fold dilution. Then add 10 µL of the drug solution concentration to individual wells of the 96-well plate seeded with cells. Test each compound concentration in triplicate wells, and the final DMSO concentration is 0.1%. • (4) Incubate the cells in the 96-well plate containing the drug compounds at 37°C, under 5% CO2, and 95% humidity for an additional 72 hour period prior to performing the CTG analysis. • 4. Fluorescence Signal Reading • (1) Thaw the CTG reagent and equilibrate the plate to room temperature for 30 minutes. • (2) Add an equal volume of CTG solution to each well. • (3) Lyse cells by shaking on an orbital shaker for 5 minutes. • (4) Leave the plate at room temperature for 20 minutes to stabilize the […]. • (5) Read fluorescence value. • 5. Data Processing
(§4) Analyze the data by using GraphPad Prism 7.0 software, and use Non-linear S-curve regression to fit the dose-response curves, to calculate the IC50 values (in nM). The specific experiment results are presented in Table 1: [formula] Table 1: Biology Test Results

[2] = system: Ba/F3 EGFR-DEL19-C797S (DC); test: Cell proliferation assay (CellTiter-Glo), Ba/F3 DC; assay type: cell-based; details: Mus musculus, BaF3; Ba/F3 EGFR-DEL19-C797S cells, 72 hour incubation, CTG readout
Protocol: as §1, §2, §3, §4

[3] = system: Ba/F3 EGFR-L858R-C797S (LC); test: Cell proliferation assay (CellTiter-Glo), Ba/F3 LC; assay type: cell-based; details: Mus musculus, BaF3; Ba/F3 EGFR-L858R-C797S cells, 72 hour incubation, CTG readout
Protocol: as §1, §2, §3, §4

A431 WT = test: Cell proliferation assay (CellTiter-Glo), A431 WT; assay type: cell-based; details: Homo sapiens, A-431; A431 WT cells, 72 hour incubation, CTG readout
Protocol: as §1, §2, §3, §4

[4] = system: Ba/F3 EGFR-DEL19-T790M-C797S (DTC); test: Cell proliferation assay (CellTiter-Glo), Ba/F3 DTC; assay type: cell-based; details: Ba/F3 EGFR-DEL19-T790M-C797S cells, 72 hour incubation, CTG readout; read-out: IC50 BaF3 DTC
Protocol: as §1, §2, §3, §4

[5] = Pharmacokinetic experiment in mice; assay type: in vivo; details: male, mouse; ICR mice, single oral administration (PO), 10 mg/kg, plasma
Text: The purpose of this trial is to study the pharmacokinetic behavior of some compounds of the present invention, and the administration method is: Single oral administration (PO) to ICR mice.
The compounds used in this trial are from the compounds in the specific examples of the present invention and the listed positive compounds.
ICR mice male N=9 original source: Shanghai Sippr-Bk Lab Animal Co., Ltd.
The compounds are weighed and dissolved in the corresponding solution (10% PG + 10% Solutol® + 80% pH3 citrate buffer). The mixture is then shaken well and sonicated to prepare a 1 mg/mL stock solution. Nine mice are orally administered at a dose of 10 mg/kg (or IV 2 mg/kg) after an overnight fast.
About 90 µL of blood is collected via the submandibular vein per time point, heparin sodium anticoagulant is added, the sample is placed on ice after collection, and plasma is centrifuged within 1 hour (centrifugation conditions: 8,000 rpm, 6 minutes, 2-8°C). The blood collection timepoints are 0, 0.25, 0.5, 1, 2, 4, 6, 8 and 24 h. The samples are stored in a -20°C refrigerator.
The plasma sample is 40 µL, 160 µL of ice-cold acetonitrile containing internal standard is added, vortexed for 3 minutes, and centrifuged at 11,000 rpm for 5 minutes. 100 µL of the supernatant is taken and added to 100 µL of water, 5 µL of the sample is taken and injected into LC/MS/MS for analysis.

SMILES	IC50 [1]	IC50 [2]	IC50 [3]	IC50 (A431 WT)	IC50 [4]	AUC(0-t) [5]	Cmax [5]	half-life [5]
CCS(=O)(=O)N[C@H]1CCN(c2nn3c4cc(ncc24)Nc2ccnc(n2)-c2cnn(C)c2OCC2(CCCC2)C3)C1 [Example 57]	7.9 nM	5.3 nM	22.8 nM	251 nM	3.1 nM			
C[C@H]1CCOc2c(cnn2C)-c2nccc(n2)Nc2cc3c(cn2)c(N2CC(CS(C)(=O)=O)C2)nn31 [Example A4, (S)-1^1,5-dimethyl-4^3-(3-((methylsulfonyl)methyl)azetidin-1-yl)-1^1H,4^1H-8-oxa-3-az a-4(6,1)-pyrazolo[4,3-c]pyri dina-2(2,4)-pyrimidina-1(4, 5)-pyrazolacyclooctaphane]	186 nM	176 nM	380 nM	2680 nM	244 nM			
Cn1ncc2c1OCC1(CCCC1)Cn1nc(N3CC[C@@H](O)C3)c3cnc(cc31)Nc1ccnc-2n1 [Example 22, (R)-1-(1'-methylspiro(cyclopentane-1,6'-8-oxa-3-aza-4(6,1)-pyrazolo[4,3-c]pyridina-2(2,4)-pyrimidina-1(4,5)-pyrazolacyclooctaphane)-3' -yl)pyrrolidin-3-ol]	5.9 nM		13.2 nM	409 nM		2340 ng·h/mL	503 ng/mL	3 h
CN1CCC(C#Cc2nn3c4cc(ncc24)Nc2ccnc(n2)-c2cnn(C)c2OCC2(CCC2)C3)CC1 [Example 5, 1'-methyl-3'-((1-methylpiperidin-4-yl)ethynyl)spiro(cyclobutane-1,6'-8-oxa-3-aza-4(6,1)-pyrazolo[4,3-c]pyridina-2(2,4)-pyrimidina-1(4,5)-pyrazolacyclooctaphane)]	9.2 nM	19.7 nM	14 nM	1080 nM	4.7 nM			
Cn1ncc2c1OCC1(CCCC1)Cn1nc(N3CC[C@@H](NS(=O)(=O)C4CC4)C3)c3cnc(cc31)Nc1ccnc-2n1 [Example 58, (R)-N-(1-(1'-methylspiro(cyclopentane-1,6'-8-oxa-3-aza-4(6,1)-pyrazolo[4,3-c]pyridina-2(2,4)-pyrimidina-1(4,5) -pyrazolacyclooctaphane)-3' -yl)pyrrolidin-3-yl)cyclopro panesulfonamide]	2.1 nM	7.2 nM	6.9 nM	911 nM	2.8 nM			
Cn1ncc2c1OCC1(CCCC1)Cn1nc(N3CC[C@@H](CO)C3)c3cnc(cc31)Nc1ccnc-2n1 [Example 21, (R)-(1-(1'-methylspiro(cyclopentane-1,6'-8-oxa-3-aza-4(6,1)-pyrazolo[4,3-c]pyridina-2(2,4)-pyrimidina-1(4,5) -pyrazolacyclooctaphane)-3 '-yl)pyrrolidin-3-yl)methanol]	4.7 nM	7.1 nM	15.8 nM	171 nM	3.4 nM			
Cn1ncc2c1OCC1(CCCC1)Cn1nc(N3CC[C@@](C)(O)C3)c3cnc(cc31)Nc1ccnc-2n1 [Example 24, (R)-3-methyl-1-(1'-methylspiro(cyclopentane-1,6'-8-oxa-3-aza-4(6,1)-pyrazolo[4,3-c]pyridina-2(2,4)-pyrimidina-1(4,5)-pyrazolacyclooctaphane)-3'-yl)pyrrolidin-3-ol]	6.1 nM	4.4 nM		378 nM	0.7 nM			

Further molecules by falling IC50 [1], results first:

IC50 [1]	IC50 [2]	IC50 [3]	IC50 (A431 WT)	IC50 [4]	AUC(0-t) [5]	Cmax [5]	half-life [5]	SMILES
262 nM	40.9 nM	299 nM	2700 nM	64.9 nM				CC#Cc1nn2c3cc(ncc13)Nc1ccnc(n1)-c1cnn(C)c1OCC[C@@H]2C [Example A1, (S)-1^1,5-dimethyl-4^3-(prop-1-yn-1-yl)-1^1H,4^1H-8-oxa-3-aza-4(6,1)-pyrazolo[4,3-c]py ridina-2(2,4)-pyrimidina-1(4,5)-pyrazolacyclooctaphane]
24.6 nM		43.5 nM	1660 nM		2520 ng·h/mL	193 ng/mL	5.6 h	CCN1CCC(C#Cc2nn3c4cc(ncc24)Nc2ccnc(n2)-c2cnn(C)c2OCC2(CCCC2)C3)CC1 [Example 7, 3'-((1-ethylpiperidin-4-yl)ethynyl)-1'-methylspiro(cyclopentane-1,6'-8-oxa-3-aza-4(6,1)-pyrazolo[4,3-c]pyridina-2(2,4)-pyrimidina-1(4,5)-pyrazolacyclooctaphane)]
12.4 nM	26.8 nM	50.3 nM	822 nM	15.6 nM				CN1CCC(C#Cc2nn3c4cc(ncc24)Nc2ccnc(n2)-c2cnn(C)c2OCC2(CCOCC2)C3)CC1 [Example 4, 1'-methyl-3'-((1-methylpiperidin-4-yl)ethynyl)-2,3,5,6-te trahydrospiro(pyran-4,6'-8-oxa-3-aza-4(6,1)-pyrazolo[4,3-c]pyridina-2(2,4)-pyrimidina-1(4,5)-pyrazolacyclooctaphane)]
12.1 nM	5.1 nM	14.9 nM	543 nM	10.5 nM				Cn1ncc2c1OCC1(CCCCC1)Cn1nc(N3CC[C@@H](CS(C)(=O)=O)C3)c3cnc(cc31)Nc1ccnc-2n1 [Example 32, (R)-1'-methyl-3'-(3-((methylsulfonyl)methyl)pyrrolidin-1-yl)spiro(cyclohexane-1, 6'-8-oxa-3-aza-4(6,1)-pyrazolo[4,3-c]pyridina-2(2,4)-pyrimidina-1(4,5)-pyrazolacyclooctaphane)]
12 nM	12.1 nM	33.1 nM	329 nM	8.5 nM				COC(=O)N[C@H]1CCN(c2nn3c4cc(ncc24)Nc2ccnc(n2)-c2cnn(C)c2OCC2(CCCC2)C3)C1 [Example 55, Methyl (S)-(1-(1'-methylspiro(cyclopentane-1,6'-8-oxa-3-aza-4(6,1)-pyrazolo[4,3-c]pyridina-2(2,4)-pyrimidina-1(4,5)-pyrazolacyclooctaphane)-3'-yl)pyrrolidin-3-yl)carbamate]
0.7 nM		2.1 nM	320 nM		4940 ng·h/mL	1350 ng/mL	3.5 h	Cn1ncc2c1OCC1(CCCC1)Cn1nc(N3CC[C@H](CS(=O)(=O)C4CC4)C3)c3cnc(cc31)Nc1ccnc-2n1 [Example 40, (S)-3'-(3-((cyclopropylsulfonyl)methyl)pyrrolidin-1-yl)-1'-methylspiro(cyclopentane-1,6'-8-oxa-3-aza-4(6,1)-pyrazolo[4,3-c]pyridina-2(2, 4)-pyrimidina-1(4,5)-pyrazolacyclooctaphane)]
